By IC50 is commonly meant the concentration needed to halve the response being measured.

Where two headings read alike, the source gives them in different places. Some results are limits rather than exact numbers.

The source of these data is patent US11090304B2 (Amgen Inc., priority 2018, dated 2021).

Experiment [1] deals with Phosphorylation of ERK1/2 in MIA PaCa-2 cells. The experiment is described as follows: Phospho-ERK1/2 MSD assay in MIA PaCa-2 cells. The format is cell-based. To be noted: Homo sapiens. The gist of the method: (§1)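 MSD electrochemiluminescence readout of phospho-ERK1/2 in whole-cell lysates, IC50 by 4-parameter logistic fit. Compound titrations were applied for 2 or 4 h at 37 °C, 5% CO2, followed by 10 ng/mL EGF stimulation for 10 min before lysis.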

The test system of experiment [2] is Phosphorylation of ERK1/2 in A549 cells. The experiment is described as follows: Phospho-ERK1/2 MSD assay in A549 cells. Type of experiment: cell-based. To be noted: Homo sapiens. A digest of the protocol: as §1
The target of experiment [3] is GDP-bound KRAS protein (aa 1-169), containing both G12C and C118A amino acid substitutions (Homo sapiens, UniProt P01116, C118A/G12C). The experiment is described as follows: Coupled nucleotide exchange assay (SOS-mediated, AlphaScreen). The format is biochemical. To be noted: for Coupled exchange IC50 (2 h): 2 h compound pre-incubation. For orientation: In Alpha technology, singlet oxygen from a donor bead excites a nearby acceptor bead.

[4] abbreviates: MIA PaCa-2, 2 h, read-out: p-ERK IC50 (2 h; MIA PaCa-2), 2 h compound treatment.
Where [5] appears, read: A549, 2 h, read-out: p-ERK IC50 (2 h; A549), 2 h compound treatment.

Sequence of GDP-bound KRAS protein (aa 1-169), containing both G12C and C118A amino acid substitutions (P01116 1-169 isoform P01116-2 G12C/C118A): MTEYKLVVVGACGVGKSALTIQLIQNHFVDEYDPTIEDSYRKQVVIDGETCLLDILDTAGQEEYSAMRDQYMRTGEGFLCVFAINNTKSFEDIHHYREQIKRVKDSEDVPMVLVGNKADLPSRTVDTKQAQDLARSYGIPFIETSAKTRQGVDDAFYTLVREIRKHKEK

On to `C=CC(=O)N1CCN(c2nc(=O)n(CC3(C)CC3)c3nc(-c4c(O)cccc4F)c(Cl)cc23)[C@@H](C)C1` [Example 54-6, 6-chloro-7-(2-fluoro~ 6-hydroxyphenyl)-1-((1-methylcyclopropyl)methyl)-4-((2S)-2-methyl-4-(2-propenoyl)-1-piperazinyl) pyrido[2,3-d]pyrimidin-2(1H)-one], for which the IC50 is 528 nM in experiment [1] (setting [4]) and no less than 10000 nM in experiment [2] (setting [5]). In experiment [3] (5 min compound pre-incubation), the “Coupled exchange IC50 (5 min)” value is given as 0.306 | nda μM.

Turning to `C=CC(=O)N1CCN(c2nc(=O)n(-c3cccnc3C(C)C)c3nc(-c4ccccc4F)c(Cl)cc23)[C@@H](C)C1` [Example 54-9, 6-chloro-7-(2-fluorophenyl)-4-((2S)-2-methyl-4-(2-propenoyl)-1-piperazinyl)-1-(2-(2-propanyl)-3-pyridinyl) pyrido[2,3-d]pyrimidin-2(1H)-one], the IC50 in experiment [1] (setting [4]) is 86 nM; in experiment [2] (setting [5]) it was no less than 10000 nM. For the same compound, the “Coupled exchange IC50 (5 min)” value in experiment [3] (5 min compound pre-incubation) is listed as 0.147 | nda μM.

As for `C=CC(=O)N1CCN(c2nc(=O)n(-c3ccccc3C3CCC3)c3nc(-c4c(O)cccc4F)c(Cl)cc23)[C@@H](C)C1` [Example 54-10, 6-chloro-1-(2-cyclobutylphenyl)-7-(2-flnoro-6-hydroxyphenyl)-4-((2S)-2-methyl-4-(2-propenoyl)-1-piperazinyl) pyrido[2,3-d]pyrimidin-2(1H)-one], the IC50 is 182 nM in experiment [1] (setting [4]) and no less than 10000 nM in experiment [2] (setting [5]). Besides, the “Coupled exchange IC50 (5 min)” value in experiment [3] (5 min compound pre-incubation) was 0.185 | nda μM.

`C=CC(=O)N1CCN(c2nc(=O)n(-c3cccnc3C(C)C)c3nc(-c4c(O)cccc4F)c(Cl)cc23)[C@@H](C)C1` [Example 54-11, 6-chloro-7-(2-fluoro-6-hydroxyphenyl)-4-((2S)-2-methyl-4-(2-propenoyl)-1-piperazinyl)-1-(2-(2-propanyl)-3-pyridinyl) pyrido[2,3-d]pyrimidin-2(1H)-one]: the IC50 in experiment [1] (setting [4]) was 63 nM; in experiment [2] (setting [5]), no less than 10000 nM. Besides, in experiment [3] (5 min compound pre-incubation), the “Coupled exchange IC50 (5 min)” value is 0.069 | nda μM.

Consider `C=CC(=O)N1CCN(c2nc(=O)n(-c3ccccc3C3CCC3)c3nc(-c4ccccc4F)c(Cl)cc23)[C@@H](C)C1` [Example 54-12, 6-chloro-1-(2-cydobutyl-phenyl)-7-(2-fluorophenyl)-4-((2S)-2-methyl-4-(2-propenoyl)-1-piperazinyl) pyrido[2,3-d]pyrirnidin-2(1H)-one], for which the IC50 in experiment [1] (setting [4]) was 162 nM; in experiment [2] (setting [5]), no less than 10000 nM. In addition, the “Coupled exchange IC50 (5 min)” value in experiment [3] (5 min compound pre-incubation) is 0.289 | nda μM.

On to `C=CC(=O)N1CCN(c2nc(=O)n(-c3nccn3C(C)C)c3nc(-c4c(O)cccc4F)c(Cl)cc23)[C@@H](C)C1` [Example 54-13, 6-chloro-7-(2-fluoro-6-hydroxy-phenyl)-4-((2S)-2-methyl-4-(2-propenoyl)-1-piperazinyl)-1-(1-(2-propanyl)-1H-imidazol-2-yl)pyrido[2,3-d]pyrimidin-2(1H)-one], for which the results for the half-inhibitory concentration (IC50) in experiment [1] (setting [4]) and in experiment [2] (setting [5]) were 2560 nM and no less than 10000 nM, respectively. Besides, the “Coupled exchange IC50 (5 min)” value in experiment [3] (5 min compound pre-incubation) is on record as 0.811 | nda μM.

`C=CC(=O)N1CCN(c2nc(=O)n(-c3c(CC)cccc3CC)c3nc(-c4ccccc4C4CC4)c(Cl)cc23)[C@@H](C)C1` [Example 54-22, 6-chloro-7-(2-cyclopropyl-phenyl)-1-(2,6-diethyl-phenyl)-4-((2S)-2-methyl-4-(2-propenoyl)-1-piperazinyl) pyrido[2,3-d]pyrimidin-2(1H)-one]: the IC50 in experiment [1] (setting [4]) is 245 nM; in experiment [2] (setting [5]) it was no less than 33300 nM. In addition, in experiment [3] (5 min compound pre-incubation), the “Coupled exchange IC50 (5 min)” value worked out at 0.347 µM. In experiment [3], the “Coupled exchange IC50 (2 h)” value is 97 nM.

Turning to `C=CC(=O)N1CCN(c2nc(=O)n(-c3c(CC)cccc3CC)c3nc(-c4ccccc4C(C)C)c(Cl)cc23)[C@@H](C)C1` [Example 54-23, 6-chloro-1-(2,6-diethylphenyl)-4-((2S)-2-methyl-4-(2-propenoyl)-1-piperazinyl)-7-(2-(2-propanyl)phenyl)pyrido [2,3-d]pyrimidin-2(1H)-one], the IC50 was 122 nM in experiment [1] (setting [4]) and no less than 10000 nM in experiment [2] (setting [5]). For the same compound, in experiment [3] (5 min compound pre-incubation), the “Coupled exchange IC50 (5 min)” value was 0.103 | nda μM.

As for `C=CC(=O)N1CCN(c2nc(=O)n(-c3nocc3C3CC3)c3nc(-c4c(O)cccc4F)c(Cl)cc23)[C@@H](C)C1` [Example 54-24, 6-chloro-1-(4-cyclopropyl-1,2-oxazol-3-yl)-7-(2-fluoro-6-hydroxyphenyl)-4-((2S)-2-methyl-4-(2-propenoyl)-1-piperazinyl) pyrido[2,3-d]pyrimidin-2(1H)-one], the values for the IC50 in experiment [1] (setting [4]) and in experiment [2] (setting [5]) were 942 nM and no less than 10000 nM, respectively. In addition, in experiment [3] (5 min compound pre-incubation), the “Coupled exchange IC50 (5 min)” value is listed as 0.797 | nda μM.

With `C=CC(=O)N1CCN(c2nc(=O)n(-c3c(Cl)cccc3Cl)c3nc(-c4ccccc4F)c(Cl)cc23)[C@@H](C)C1` [Example 54-30, 6-chloro-1-(2,6-dichlorophenyl)-7-(2-fluorophenyl)-4-((2S)-2-methyl-4-(2-propenoyl)-1-piperazinyl) pyrido[2,3-d]pyrimidin-2(1H)-one], the half-maximal inhibitory concentration (IC50) is 453 nM in experiment [1] (setting [4]) and no less than 10000 nM in experiment [2] (setting [5]). Also, in experiment [3] (5 min compound pre-incubation), the “Coupled exchange IC50 (5 min)” value is listed as 0.824 | nda μM.

Take `C=CC(=O)N1CCN(c2nc(=O)n(-c3ccccc3CC)c3nc(-c4ccccc4F)c(Cl)cc23)[C@@H](C)C1` [Example 54-31, 6-chloro-1-(2-ethylphenyl)-7-(2-fluorophenyl)-4-((2S)-2-methyl-4-(2-propenoyl)-1-piperazinyl) pyrido[2,3-d]pyrimidin-2(1H)-one]: the IC50 is 237 nM in experiment [1] (setting [4]) and no less than 10000 nM in experiment [2] (setting [5]). In addition, the “Coupled exchange IC50 (5 min)” value in experiment [3] (5 min compound pre-incubation) is 0.395 | nda μM.

Turning to `C=CC(=O)N1CCN(c2nc(=O)n(-c3ccccc3Cl)c3nc(-c4ccccc4F)c(Cl)cc23)[C@@H](C)C1` [Example 54-32, 6-chloro-1-(2-chlorophenyl)-7-(2-fluorophenyl)-4-((2S)-2-methyl-4-(2-propenoyl)-1-piperazinyl) pyrido[2,3-d]pyrimidin-2(1H)-one], the results for the IC50 in experiment [1] (setting [4]) and in experiment [2] (setting [5]) were 796 nM and no less than 10000 nM, respectively. Also, in experiment [3] (5 min compound pre-incubation), the “Coupled exchange IC50 (5 min)” value was 1.963 | nda μM.

With `C=CC(=O)N1CCN(c2nc(=O)n(-c3c(Cl)cccc3Cl)c3nc(-c4c(O)cccc4F)c(Cl)cc23)[C@@H](C)C1` [Example 54-33, 6-chloro-1-(2,6-dichlorophenyl)-7-(2-fluoro-6-hydroxyphenyl)-4-((2S)-2-methyl-4-(2-propenoyl)-1-piperazinyl) pyrido[2,3-d]pyrimidin-2(1H)-one], the IC50 is 215 nM in experiment [1] (setting [4]) and no less than 10000 nM in experiment [2] (setting [5]). The “Coupled exchange IC50 (5 min)” value in experiment [3] (5 min compound pre-incubation) is recorded as 0.176 | nda μM.

With `C=CC(=O)N1CCN(c2nc(=O)n(-c3c(C)cncc3C)c3nc(-c4c(O)cccc4F)c(Cl)cc23)[C@@H](C)C1` [Example 54-41, 6-chloro-1-(3,5-dimethyl-4-pyridinyl)-7-(2-fluoro-6-hydroxyphenyl)-4-((2S)-2-methyl-4-(2-propenoyl)-1-piperazinyl) pyrido[2,3-d]pyrimidin-2(1H)-one], the IC50 is 2900 nM in experiment [1] (setting [4]) and no less than 10000 nM in experiment [2] (setting [5]). For the same compound, in experiment [3] (5 min compound pre-incubation), the “Coupled exchange IC50 (5 min)” value is 0.724 | nda μM.

Take `C=CC(=O)N1CCN(c2nc(=O)n(-c3c(C)ncnc3C)c3nc(-c4c(O)cccc4F)c(Cl)cc23)[C@@H](C)C1` [Example 54-48, 6-chloro-1-(4,6-dimethyl-5-pyrimidinyl)-7-(2-fluoro-6-hydroxyphenyl)-4-((2S)-2-methyl-4-(2-propenoyl)-1-piperazinyl) pyrido[2,3-d]pyrimidin-2(1H)-one]: the figures for the half-maximal inhibitory concentration (IC50) in experiment [1] (setting [4]) and in experiment [2] (setting [5]) were 2380 nM and no less than 10000 nM, respectively. Further, the “Coupled exchange IC50 (5 min)” value in experiment [3] (5 min compound pre-incubation) is on record as 0.779 | nda μM.

For `C=CC(=O)N1CCN(c2nc(=O)n(-c3ncccc3C(C)C)c3nc(-c4c(O)cccc4F)c(Cl)cc23)[C@@H](C)C1` [Example 54-57, 6-chloro-7-(2-fluoro-6-hydroxyphenyl)-4-((2S)-2-methyl-4-(2-propenoyl)-1-piperazinyl)-1-(3-(2-propanyl)-2-pyridinyl) pyrido[2,3-d]pyrimidin-2(1H)-one], the IC50 is 53 nM in experiment [1] (setting [4]); no less than 10000 nM in experiment [2] (setting [5]); 83 nM in experiment [3] (read-out: Coupled exchange IC50 (5 min), 5 min compound pre-incubation).

Turning to `C=CC(=O)N1CCN(c2nc(=O)n(-c3ccncc3C3CC3)c3nc(-c4c(O)cccc4F)c(Cl)cc23)[C@@H](C)C1` [Example 54-59, 6~chloro-1-(3-cyclopropyl-4-pyridinyl)-7-(2-fluoro-6-hydroxyphenyl)-4-((2S)-2-methyl-4-(2-propenoyl)-1-piperazinyl) pyrido[2,3-d]pyrimidin-2(1H)-one], the IC50 in experiment [1] (setting [4]) is 712 nM; in experiment [2] (setting [5]), no less than 10000 nM. In experiment [3] (5 min compound pre-incubation), the “Coupled exchange IC50 (5 min)” value is 0.22 | nda μM.

Take `C=CC(=O)N1CCN(c2nc(=O)n(-c3c(CC)cccc3CC)c3nc(-c4ccccc4F)c(Cl)cc23)[C@@H](C)C1` [Example 54-60, 6-ehloro-1-(2,6-diethylphenyl)-7-(2-fluorophenyl)-4-((2S)-2-methyl-4-(2-propenoyl)-1-piperazinyl) pyrido[2,3-d]pyrimidin-2(1H)-one]: the IC50 in experiment [1] (setting [4]) is 145 nM; in experiment [1] (MIA PaCa-2, 4 h, read-out: p-ERK IC50 (4 h; MIA PaCa-2), 4 h compound treatment), 91 nM; in experiment [2] (setting [5]), no less than 10000 nM; in experiment [2] (A549, 4 h, read-out: p-ERK IC50 (4 h; A549), 4 h compound treatment) it was no less than 11100 nM. The “Coupled exchange IC50 (5 min)” value in experiment [3] (5 min compound pre-incubation) amounted to 0.216 µM. In addition, the “Coupled exchange IC50 (2 h)” value in experiment [3] is 93 nM.
